Test results: USRE42700E1, “Induction of apoptosis in cancer cells” (Sanford-Burnham Medical Research Institute, priority 2001, dated 2011)

What was measured:
[1] = tested on: ERK, p38 and JNK kinases in M07e and patient leukemic cells; test: activation of MAPK pathways (phospho-p38, phospho-ERK, phospho-JNK Western blots); format: cell-based, human; settings: 1 μM
Experimental: (§1) Western Blots: Western blots were performed according to the protocol of Sheikh, M. S., et al., (Oncogene, 9: 3407-3415 (1994)). Logarithmically growing cells were treated with 3-Cl-AHPC for various times and cells were harvested and lysed in Laemmli lysis buffer (0.5 M Tris-HCl, pH 6.8, 0.002M EDTA, 10% glycerol, 10% sodium dodecyl sulfate (SDS), and 5% β-mercaptoethanol). Protein lysates (50 μg/lane) were electrophoresed on 12% SDS-polyacrylamide gels and transferred to nitrocellulose membranes. Membranes were blocked with 5% nonfat dried milk in PBS/0.5% Tween 20 and then incubated with the appropriate antibodies. Horseradish peroxidase-conjugated rabbit anti-mouse IgG was used as the secondary antibody, and bands were developed using the Amersham ECL non-radioactive method.

[2] = tested on: ALL cells obtained from patients; test: apoptosis of primary ALL cells obtained from patients; format: cell-based, human; settings: primary cultures
[3] = tested on: cancer cells; test: mitochondrial membrane potential (Δψm) using Rh123; format: cell-based; settings: 10^−6 M
[4] = tested on: caspases in M07e cells; test: caspase activation in M07e cells; format: cell-based, human
Experimental: Activation of caspases-1, -2, -3, -6, -8 and -9 was assessed using a caspase activation kit.

[5] = tested on: committed marrow stem cells (CFU-GM); test: CFU-GM colony formation (species not stated); format: cell-based; settings: concentrations which completely inhibited leukemic colony formation
Experimental: CFU-GM Colony Formation: The CFU-GM colony assay was performed as described in Parchment et al., (J. Natl. Cancer Inst. 86: 273-280 (1994)).

[6] = tested on: Murine AML 1498 cells; test: murine AML 1498 implanted intravenously in C57BL/6 mice
Source text: Tumor Maintenance: Murine AML1498 cells were maintained in the mouse strain of origin (C57BL/6) and transplanted into this same inbred strain chemotherapy trials. Individual mouse body weights for each experiment were within five grams, and all mice were more than 20 grams (mean) at the start of therapy. Mice were supplied food and water ad libitum.
Treatment was started the day after implantation of AML cells.
End Points for Assessing Antitumor Activity: The following quantitative endpoints were used to assess antitumor activity
a) Percent Increase in Lifespan (% ILS): For leukemic mice: • % ILS=(T−C)/C×100; in which C=median day of death of control group and T=median day of death of treated group. Survival was the endpoint; with moribund mice sacrificed. Cause of death was verified by necropsy.
b) Calculation of Tumor Cell Kill: For leukemic survival trials, the log10 cell kill was calculated from the following formula:
[formula] where T is median day of death for treated group and C is median day of death for control group (Corbett, T. H., et al., Invest. New Drugs, 17: 17-27 (1999) and Teicher, B. A., In vivo tumor response end points, In Tumor Models in Cancer Research, B. Teicher, editor, Humana Press Inc./Totowa, N.J., pp. 593-616 (2001)). Td is determined from differences in the median days of death of the titered control groups.

[7] = tested on: MDA-MB-231; test: apoptosis induction / cell death in breast cancer cells; format: cell-based, human
[8] = tested on: MCF-7; test: as above; format: cell-based, human
[9] = biological target: RARα (Homo sapiens, UniProt P10276); test: activation of RARα on the (TREpal)2-tk-CAT reporter construct; format: cell-based; settings: 1.0 μM
[10] = tested on: PARP in M07e cells and patient leukemic blasts; test: PARP cleavage by Western blot; format: cell-based, human; settings: 1 μM, by 24 hours
Experimental: as §1

[11] = tested on: ZR-75; test: apoptosis induction / cell death in breast cancer cells; format: cell-based, human
[12] = biological target: RARβ (Homo sapiens, UniProt P10826); test: activation of RARβ on the (TREpal)2-tk-CAT reporter construct; format: cell-based; settings: 1.0 μM
[13] = biological target: RARγ (Homo sapiens, UniProt P13631); test: activation of RARγ on the (TREpal)2-tk-CAT reporter construct; format: cell-based
[14] = tested on: human acute megakaryocytic leukemia cell line M07e; test: M07e cell growth / proliferation; format: cell-based
Experimental: Cell Growth: IL-3-transfected M07e cells have been described by Thacker, D. J., et al., Leukemia 8: 871-877 (1994). Cells were grown in RPMI supplemented with 5 percent heat-inactivated fetal bovine serum (FBS) and 25 μg/ml gentamycin in a […], 5% CO2, and 100% humidity environment. Leukemic cells were obtained from patients who met the criteria for the diagnosis of AML or CML in blast crisis (see Table 1). Studies were approved by the Wayne State University Institutional Review Board. Informed consent was obtained from all patients. Leukemic blasts from patients were isolated using Ficoll hypaque. Cells at the interface between plasma and red blood cells were diluted with sterile PBS, then layered over Ficoll hypaque (1.077 density), and the leukemic cells collected at the interface. The sample to be studied represented greater than 90% blasts. The patient leukemia samples were grown in RPMI medium supplemented with 10% FBS, gentamycin (25 μg/ml), IL-3 (20 ng/ml), SCF (25 ng/ml), GM-CSF (20 ng/ml) and G-CSF (20 ng/ml). Cell growth was assessed using a cell proliferation kit.

[15] = total dose 80 mg/kg, qd 1-5, 5 × 10^6 cells
[16] = total dose 115 mg/kg, qd 1-5, 5 × 10^6 cells
[17] = total dose 140 mg/kg, qd 1-4, 5 × 10^6 cells

Chain of RARα (P10276 whole entry, species assumed): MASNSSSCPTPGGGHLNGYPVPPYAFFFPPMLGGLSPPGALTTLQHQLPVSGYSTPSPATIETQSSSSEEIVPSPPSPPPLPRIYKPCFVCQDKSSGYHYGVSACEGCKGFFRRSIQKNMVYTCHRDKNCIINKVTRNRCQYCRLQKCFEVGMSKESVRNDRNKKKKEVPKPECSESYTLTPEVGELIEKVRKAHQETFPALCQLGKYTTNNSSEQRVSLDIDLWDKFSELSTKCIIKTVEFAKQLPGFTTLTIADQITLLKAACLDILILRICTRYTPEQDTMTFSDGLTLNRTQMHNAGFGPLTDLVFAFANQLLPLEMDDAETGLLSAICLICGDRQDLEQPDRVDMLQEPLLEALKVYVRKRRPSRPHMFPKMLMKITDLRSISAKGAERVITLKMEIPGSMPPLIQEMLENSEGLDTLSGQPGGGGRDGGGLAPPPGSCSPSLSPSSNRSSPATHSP
Chain of RARγ (P13631 whole entry, species assumed): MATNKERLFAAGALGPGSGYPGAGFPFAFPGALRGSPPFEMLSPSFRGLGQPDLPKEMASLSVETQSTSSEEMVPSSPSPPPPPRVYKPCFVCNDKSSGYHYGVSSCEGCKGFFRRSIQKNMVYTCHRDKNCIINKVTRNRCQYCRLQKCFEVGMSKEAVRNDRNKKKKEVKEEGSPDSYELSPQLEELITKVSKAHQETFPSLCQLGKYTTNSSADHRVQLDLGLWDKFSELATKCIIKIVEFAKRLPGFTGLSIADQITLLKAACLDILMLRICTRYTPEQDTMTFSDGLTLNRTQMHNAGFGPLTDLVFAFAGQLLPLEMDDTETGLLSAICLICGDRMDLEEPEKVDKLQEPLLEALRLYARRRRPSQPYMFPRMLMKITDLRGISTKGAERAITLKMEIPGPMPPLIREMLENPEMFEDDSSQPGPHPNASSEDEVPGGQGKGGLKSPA
Chain of RARβ (P10826 whole entry, species assumed): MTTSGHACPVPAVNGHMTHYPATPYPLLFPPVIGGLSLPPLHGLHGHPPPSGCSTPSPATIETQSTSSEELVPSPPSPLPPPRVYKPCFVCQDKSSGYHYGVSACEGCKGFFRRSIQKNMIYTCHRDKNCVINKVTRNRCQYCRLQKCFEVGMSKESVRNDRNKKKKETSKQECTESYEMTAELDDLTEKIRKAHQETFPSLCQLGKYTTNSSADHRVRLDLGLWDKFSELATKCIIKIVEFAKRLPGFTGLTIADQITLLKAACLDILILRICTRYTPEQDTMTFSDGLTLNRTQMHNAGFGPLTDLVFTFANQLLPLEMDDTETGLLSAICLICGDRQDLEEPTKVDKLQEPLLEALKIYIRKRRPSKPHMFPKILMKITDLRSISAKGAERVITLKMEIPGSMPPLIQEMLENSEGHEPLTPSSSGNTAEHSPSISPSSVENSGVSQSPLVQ

O=C(O)/C=C/c1ccc(-c2ccc(O)c(C34CC5CC(CC(C5)C3)C4)c2)c(Cl)c1 [Example 3-Cl-AHPC, (E)-4-[3-(1-Adamantyl)-4-hydroxyphenyl]-3-chlorocinnamic acid]
activation of ERK, p38 and JNK kinases [1]: inactivation of ERK, p38 and JNK kinases
apoptosis of ALL cells obtained from patients [2]: resulted in their apoptosis
percentage of cells with Δψm loss [3]: significant increases in the percentage of cells with Δψm loss
increase in activity of caspase-2 ([4]; 0.5 μM): approximately 2 fold
increase in activity of caspase-3 ([4]; 0.5 μM): approximately 2 fold
increase in activity of caspase-6 ([4]; 0.5 μM): approximately 2 fold
increase in activity of caspase-8 ([4]; 0.5 μM): approximately 2 fold
increase in activity of caspase-2 ([4]; 1 μM): approximately 4 fold
increase in activity of caspase-3 ([4]; 1 μM): 2.5 fold
increase in activity of caspase-6 ([4]; 1 μM): 3 fold
increase in activity of caspase-8 ([4]; 1 μM): approximately 4 fold
inhibition of CFU-GM colony formation [5]: 30%
animal deaths ([6]; 140 mg/kg total dose over four days): no animal deaths
Body Wt. Loss [6, 15]: +0.0%
ILS [6, 15]: 50%
Log cell kill [6, 15]: 2.6
Mean Body Wt. Loss [6, 15]: +0.0 g/mouse
Median Day of Tumor Death (range) [6, 15]: 9 (8,9,9,9,10)
ILS [6, 16]: 83%
Log cell kill [6, 16]: 3.3
Median Day of Tumor Death (range) [6, 16]: 11 (10,10,11,11,11)
Mean Body Wt. Loss ([6]; total dose 115 mg/kg, qd 1-5, 5 × 10^6 cells, negative = loss): −1.2 g/mouse
ILS [6, 17]: 83%
Log cell kill [6, 17]: 3.3
Median Day of Tumor Death (range) [6, 17]: 11(10,11,11,11,11)
Mean Body Wt. Loss ([6]; total dose 140 mg/kg, qd 1-4, 5 × 10^6 cells, negative = loss): −3.6 g/mouse
ED50 (concentration that results in 50% cell death) [7]: 650 nM
ED50 (concentration that results in 50% cell death) [8]: 850 nM
activation of RARα [9]: does not activate
PARP cleavage [10]: rapid cleavage of 116-Kd PARP
ED50 (concentration that results in 50% cell death) [11]: 700 nM
activation of RARβ [12]: does not activate
activation of RARγ relative to that of 1.0 μM tRA [13]: less than 10%
concentration required to inhibit growth of M07e cells [14]: 0.2 µM
inhibition of growth ([14]; 0.2 μM): inhibition of growth
inhibition of proliferation ([14]; varying concentrations over time): progressive increase in the inhibition of proliferation
